Results on 7 compounds are retold here after DBAASP.

Molecules are shown by their SMILES. In brackets after ≈: the same amount, converted by molar mass. Several values for one entry are separate records, joined by “and”; a condition that tells them apart may be missing. Identical values can stand only once.

Holding throughout (assay): ≥ marks a high value that may be exact or a test limit, other limits are often not marked, values filed in µg/mL are converted to µM
For test [1], the system named is Fusarium oxysporum.
Test [2] relates to Staphylococcus aureus ATCC 25923.
For test [3], the system named is Rhizoctonia solani.
In test [4] the test system is Colletotrichum graminicola.
Test [5] concerns Escherichia coli ATCC 25922.
The test system of test [6] is Klebsiella pneumoniae KK3 9904.
For test [7], the system named is Staphylococcus aureus NCTC 8325.
The subject of test [8] is Pseudomonas aeruginosa ATCC 27853.
In test [9] the test system is Staphylococcus epidermidis RP62A.
Test [10] has as its system Candida albicans ATCC 90028.
In test [11] the test system is Enterococcus faecalis ATCC 29212.
Test [12] relates to Enterobacter cloacae HNTCC 53001.
In test [13] the test system is Proteus mirabilis ATCC 25933.
Test [14] relates to Bacillus subtilis L170.
Test [15] has as its system Bacillus subtilis DSM 357.
Test [16] deals with Escherichia coli LWF+.
The test system of test [17] is Escherichia coli DH5alpha.
For test [18], the system named is Burkholderia cepacia J2540.
The subject of test [19] is Escherichia coli JM109.
In test [20] the test system is Escherichia coli BL21(DE3).
In test [21] the test system is Cupriavidus necator H16.
Test [22] relates to Pseudomonas putida GPp104.
Test [23] concerns Listeria monocytogenes ATCC 19111.
The subject of test [24] is Staphylococcus aureus ATCC BAA-1717.
The subject of test [25] is Staphylococcus epidermidis DSM 1798.
In test [26] the test system is Listeria monocytogenes ATCC 19114.
The test system of test [27] is Listeria monocytogenes F4244.
For test [28], the system named is Escherichia coli ATCC BAA-1025.
In test [29] the test system is Klebsiella pneumoniae ATCC 27736.
The test system of test [30] is Pseudomonas aeruginosa DSM 1117.
Test [31] has as its system Pseudomonas aeruginosa ATCC 47085.
Test [32] has as its system Listeria monocytogenes ATCC 19112.
Test [33] concerns Staphylococcus aureus ATCC 25904.
The subject of test [34] is Staphylococcus aureus DSM 1104.
Test [35] concerns Escherichia coli DSM 1103.
Test [36] has as its system Latilactobacillus sakei subsp. sakei JCM 1157T.
Test [37] relates to Lactiplantibacillus plantarum ATCC 14917.
The test system of test [38] is Enterococcus faecalis JCM 5803T.
Test [39] concerns Listeria innocua ATCC 33090T.

One may read the MIC as the lowest concentration found to suppress growth. High values mean a need for much substance, low ones inhibition by little substance. Regarding `CC(C)[C@H](NC(=O)[C@@H]1CCCN1C(=O)[C@@H](N)Cc1ccccc1)C(=O)N[C@H](C(=O)N[C@@H](Cc1c[nH]c2ccccc12)C(=O)N1CCC[C@H]1C(=O)N[C@H](C(=O)N[C@@H](CCCCN)C(=O)N[C@@H](Cc1c[nH]c2ccccc12)C(=O)N[C@@H](Cc1c[nH]c2ccccc12)C(=O)N[C@@H](CCCCN)C(=O)NCC(N)=O)[C@@H](C)O)[C@@H](C)O` [FPVTWPTKWWKG], the MIC in [1] is no less than 163 µM; in test [2], > 125 µM and 163 µM; in [3], no less than 41.8 µM; in [4], no less than 163 µM; in test [5], > 125 µM and 163 µM.
For `CC[C@H](C)[C@H](NC(=O)CNC(=O)[C@H](CCCCN)NC(=O)[C@H](Cc1ccccc1)NC(=O)[C@@H](NC(=O)[C@H](CCCCN)NC(=O)[C@H](CCCCN)NC(=O)[C@H](CC(C)C)NC(=O)[C@H](C)NC(=O)[C@H](CCCCN)NC(=O)[C@H](CC(C)C)NC(=O)CN)C(C)C)C(=O)N[C@@H](Cc1cnc[nH]1)C(=O)N[C@@H](CCCCN)C(=O)N[C@@H](C)C(=O)N[C@H](C(=O)N[C@@H](CCCCN)C(=O)N[C@@H](CC(C)C)C(=O)N[C@H](C(=O)N[C@@H](CC(N)=O)C(=O)N[C@@H](CCCCN)C(=O)N[C@@H](Cc1cnc[nH]1)C(=O)N[C@H](C(=O)N[C@@H](CCC(N)=O)C(=O)O)C(C)C)[C@@H](C)CC)[C@@H](C)CC` [GLKALKKVFKGIHKAIKLINKHVQ], the minimum inhibitory concentration (MIC) in test [6] was 5 µM (≈ 13.6 µg/mL); in test [7], 20 µM (≈ 54.2 µg/mL); in test [8], 5 µM (≈ 13.6 µg/mL); in [9] it was 10 µM (≈ 27.1 µg/mL); in test [10], no less than 80 µM; in test [11], greater than 80 µM. The MIC was 2.5 µM (≈ 6.78 µg/mL) in test [12], no less than 80 µM in test [13] and 5 µM (≈ 13.6 µg/mL) in test [5].
`CC(C)C[C@H](NC(=O)[C@H](C)NC(=O)[C@H](CC(C)C)NC(=O)[C@H](CCCCN)NC(=O)[C@H](Cc1c[nH]c2ccccc12)NC(=O)[C@H](C)NC(=O)[C@H](CCCCN)NC(=O)[C@H](CC(C)C)NC(=O)[C@H](C)NC(=O)[C@H](CC(C)C)NC(=O)[C@H](CCCCN)NC(=O)[C@H](CC(C)C)NC(=O)[C@H](C)NC(=O)[C@H](CC(C)C)NC(=O)[C@@H](N)CCCCN)C(=O)N[C@@H](CCCCN)C(=O)N[C@@H](C)C(=O)N[C@@H](C)C(N)=O` [KLALKLALKAWKLALKAA]: the minimum inhibitory concentration (MIC) in test [14] was 1.6 µM (≈ 3.12 µg/mL); in [15] it was 1.6 µM (≈ 3.12 µg/mL); in test [16] it was 10 µM (≈ 19.5 µg/mL); in test [17], 5.2 µM (≈ 10.1 µg/mL).
The compound `CC[C@H](C)[C@H](NC(=O)[C@H](CCCCN)NC(=O)[C@H](CCCCN)NC(=O)[C@H](Cc1ccccc1)NC(=O)[C@H](CC(C)C)NC(=O)[C@H](CCCCN)NC(=O)[C@H](Cc1c[nH]c2ccccc12)NC(=O)[C@@H](N)CCCCN)C(=O)N[C@@H](Cc1ccccc1)C(=O)N[C@@H](CCCCN)C(=O)N[C@@H](CCCN=C(N)N)C(=O)N[C@H](C(=O)N[C@H](C(=O)N[C@@H](CCC(N)=O)C(=O)N[C@@H](CCCN=C(N)N)C(=O)N[C@H](C(=O)N[C@@H](CCCCN)C(=O)N[C@@H](CC(=O)O)C(=O)N[C@@H](Cc1ccccc1)C(=O)N[C@@H](CC(C)C)C(=O)N[C@@H](CCCN=C(N)N)C(=O)O)[C@@H](C)CC)C(C)C)[C@@H](C)CC` [KWKLFKKIFKRIVQRIKDFLR] showed an MIC in [18] of 11.2 µM (≈ 31.3 µg/mL).
As for `CC[C@H](C)[C@H](NC(=O)[C@H](Cc1ccc(O)cc1)NC(=O)[C@@H](NC(=O)[C@@H]1CCCN1C(=O)[C@H](CCCN=C(N)N)NC(=O)[C@H](CC(N)=O)NC(=O)[C@H](CC(C)C)NC(=O)[C@@H](N)CCCN=C(N)N)C(C)C)C(=O)N1CCC[C@H]1C(=O)N[C@@H](CCC(N)=O)C(=O)N1CCC[C@H]1C(=O)N[C@@H](CCCN=C(N)N)C(=O)N1CCC[C@H]1C(=O)N1CCC[C@H]1C(=O)N[C@@H](Cc1cnc[nH]1)C(=O)N1CCC[C@H]1C(=O)N[C@@H](CCCN=C(N)N)C(=O)N[C@@H](CC(C)C)C(=O)O` [RLNRPVYIPQPRPPHPRL], the MIC in test [19] was 10 µM (≈ 22.1 µg/mL); in test [20], 1.25 µM (≈ 2.76 µg/mL); in test [21], no less than 50 µM; in test [22], 12.5 µM (≈ 27.6 µg/mL).
For the compound `CC[C@H](C)[C@H](NC(=O)[C@H](CCCCN)NC(=O)[C@@H](NC(=O)[C@H](CCC(N)=O)NC(=O)[C@@H](N)CCCNC(=N)N)[C@@H](C)CC)C(=O)N[C@@H](Cc1c[nH]c2ccccc12)C(=O)N[C@@H](Cc1ccccc1)C(=O)N[C@@H](CCC(N)=O)C(=O)N[C@@H](CC(N)=O)C(=O)N[C@@H](CCCNC(=N)N)C(=O)N[C@@H](CCCNC(=N)N)C(=O)N[C@@H](CCSC)C(=O)N[C@@H](CCCCN)C(=O)N[C@@H](Cc1c[nH]c2ccccc12)C(=O)N[C@@H](CCCCN)C(=O)N[C@@H](CCCCN)C(=O)O` [RQIKIWFQNRRMKWKK], the MIC in test [23] is no less than 32 µM; in test [24] it was no less than 445 µM; in test [25], 13 µM (≈ 29.2 µg/mL); in test [26], no less than 64 µM; in test [27] it was no less than 128 µM; in test [28] it was 27.8 µM (≈ 62.5 µg/mL). The MIC in test [29] was no less than 445 µM; in test [30], no less than 51 µM; in test [31] it was no less than 55.6 µM; in test [32] it was no less than 64 µM; in test [33], no less than 111 µM; in [34], no less than 51 µM. Further, the minimum inhibitory concentration (MIC) in test [35] is no less than 51 µM.
As for `CC[C@H](C)[C@H](NC(=O)CNC(=O)CNC(=O)[C@@H]1CCCN1C(=O)[C@@H](N)[C@@H](C)O)C(=O)N[C@@H](CC(=O)O)C(=O)N[C@@H](Cc1ccccc1)C(=O)N[C@H](C(=O)N[C@@H](CO)C(=O)NCC(=O)NCC(=O)N1CCC[C@H]1C(=O)N[C@@H](Cc1cnc[nH]1)C(=O)N[C@H](C(=O)N[C@@H](C)C(=O)N[C@@H](CCC(N)=O)C(=O)N[C@@H](CC(=O)O)C(=O)N[C@H](C(=O)N[C@@H](CC(C)C)C(=O)N[C@@H](CC(N)=O)C(=O)N[C@@H](C)C(=O)N[C@H](C(=O)N[C@@H](CCCCN)C(=O)N[C@@H](CC(N)=O)C(=O)N[C@@H](Cc1ccccc1)C(=O)N[C@@H](Cc1ccccc1)C(=O)N[C@@H](CCCCN)C(=O)O)[C@@H](C)CC)C(C)C)C(C)C)[C@@H](C)CC` [TPGGIDFISGGPHVAQDVLNAIKNFFK], the MIC in test [36] was found to be 0.3 µM (≈ 0.853 µg/mL); in [37], 1.2 µM (≈ 3.41 µg/mL); in test [38] it was 0.3 µM (≈ 0.853 µg/mL); in test [39] it was 0.59 µM (≈ 1.68 µg/mL).
